From US4415566A, “Cephalosporin derivatives” (Boehringer Ingelheim GmbH, priority 1979, dated 1983) come the findings set out here.

Assay [1] has as its system E. Coli ATCC 9637. Briefly: Serial dilution test in the microtiter system (MIC), E. Coli ATCC 9637. To be noted: Escherichia coli, ATCC9637. Format: cell-based.
In assay [2] the test system is Klebsiella pneumoniae 272. Nature of the assay: Serial dilution test in the microtiter system (MIC), Klebs. pneum. 272. The format is cell-based. Here is the method:
(§1) These tests were performed according to the method of the serial dilution test in the microtiter system. The effect of the substances on bacteriostasis was examined in a fluid medium. […] A nutrient medium of the following composition was used. 10 gm of peptone, 8 gm of meat extract-oxoid, 3 gm of sodium chloride, 2 gm of sec. sodium phosphate were diluted with distilled water to […] (pH 7.2-7.4). Only in the test against streptococci 1% of glucose was added. The age of the primary cultures was about 20 hours. The standardization of the pathogen suspension was effected by using a photometer according to "Eppendorf" (test tube dismeter 14 mm, filter 546 nm) with the aid of the turbidity of a comparison suspension consisting of barium sulfate, this suspension being prepared by addition of 3.0 ml of 1% barium chloride solution to 97 ml of 1% sulfuric acid. After the standardization, streptococcus aronson were further diluted to a concentration of 1:15 and the other microorganisms to a concentration of 1:1500 by means of a sodium chloride solution.
(§2) 16 mg of the test substance were put into a 10 ml-measuring flask and filled up to the mark with the solvent. The further dilution series was standardized with distilled water or the respective solvent.
(§3) The cavities of the microtiter plates were filled with 0.2 ml of nutrient medium. Then, 0.01 ml of the corresponding test substance dilution was added and inoculated with 0.01 ml of the standardized suspension. The bacteria were incubated at 37° C. for 18-20 hours. Control tests merely using the solvent were carried out simultaneously.
(§4) The measurement was carried out macroscopically to determine the minimal inhibitory (threshold) concentration, i.e. the lower still bacteriostatically effective concentration.
(§5) Staphylococcus aureus SG 511, Escherichia coli ATCC 11 775, Pseudomonas aeruginosa Hamburgensis and Pseudomonas aeruginosa Walter, Serratia marcescens ATCC 13880, Klebsiella pneumoniae ATCC 10 031 and 272, Proteus mirabilis Hamburgensis, Proteus rettgeri, Enterbacter cloaceae ATCC 13 047 and E. Coli R+TEM (β-lactamase carrier).

In assay [3] the test system is Proteus mirabilis Hamburgensis. Nature of the assay: Serial dilution test in the microtiter system (MIC), Prot. mirabilis. Format: cell-based. Here is the method: as §1, §2, §3, §4, §5
For assay [4], the system named is Proteus rettgeri. Briefly: Serial dilution test in the microtiter system (MIC), Prot. rettgeri. The format is cell-based. To be noted: Providencia rettgeri. Here is the method: as §1, §2, §3, §4, §5
Assay [5] has as its system Enterbacter cloaceae ATCC 13 047. Briefly: Serial dilution test in the microtiter system (MIC), Eb. cloaceae ATCC 13047. The format is cell-based. Here is the method:
as §1, §2, §3, §4, §5

Assay [6] concerns Pseudomonas aeruginosa Walter. Briefly: Serial dilution test in the microtiter system (MIC), Pseud. aerug. Walter. Format: cell-based. Here is the method:
as §1, §2, §3, §4, §5

Assay [7] deals with Escherichia coli ATCC 11 775. Briefly: Serial dilution test in the microtiter system (MIC), E. Coli ATCC 11775. The format is cell-based. Here is the method:
as §1, §2, §3, §4, §5

Assay [8] deals with Klebsiella pneumoniae ATCC 10 031. Briefly: Serial dilution test in the microtiter system (MIC), Klebs. pneum. ATCC 10031. Format: cell-based. Here is the method:
as §1, §2, §3, §4, §5

Assay [9] has as its system Serratia marcescens ATCC 13880. Briefly: Serial dilution test in the microtiter system (MIC), Serrat. marcesc. ATCC 13880. The format is cell-based. Here is the method: as §1, §2, §3, §4, §5
The test system of assay [10] is Pseudomonas aeruginosa Hamburgensis. Nature of the assay: Serial dilution test in the microtiter system (MIC), Pseud. aerug. Hbg. Format: cell-based. Here is the method: as §1, §2, §3, §4, §5
Assay [11] has as its system Psuedomonas aeruginosa Walter. Briefly: In vivo activity in mice, Pseudomonas infection. The arrangement: species or system Female NMRI mice. The following applies: Mus musculus, iPSC, sc, 168 h; Pseudomonas infection i.p.; s.c. administration; per dose; observation 7 days; read-out: ED50 (dose at which 50% of the animals survived). Here is the method: (§6) A number of compounds of this invention were tested in vivo in mice against experimental infections. Bacteria E. coli ATCC 11775 and Psuedomonas aeruginosa Walter were used as pathogens. An intraperitoneal infection with 0.2 ml of a 5% suspension of the bacteria was induced. This corresponds to about 2×10^6 E. Coli germs and 8×10^5 pseudomonas germs/mouse. […] The groups with E. coli infection were treated with the test compound three times on the first day (1, 4, and 7 hours post infectionem) and for two days thereafter twice a day. The groups with the pseudomonas infection were treated with the test compound 6 times on the first day (1, 3, 6, 9, 12 and 15 hours post infectionem) and for two days thereafter twice a day. The observation time was in both cases 7 days. The results of these tests with representatives of the penicillins and cephalosporins according to the invention are shown in the following table: […]

Assay [12] concerns E. coli ATCC 11775. Briefly: In vivo activity in mice, E. coli infection. The arrangement: species or system Female NMRI mice. The following applies: Escherichia coli, ATCC11775, iPSC, sc, 168 h; E. coli infection i.p.; s.c. administration; per dose; observation 7 days; read-out: ED50 (dose at which 50% of the animals survived). Here is the method:
as §6

[13] abbreviates: Table III, Prot. mirabilis, 37° C., 18-20 hours, read-out: MIC.
Where [14] appears, read: Table III, Prot. rettgeri, 37° C., 18-20 hours, read-out: MIC.
Where [15] appears, read: Table III, Pseud. aerug. Walter, 37° C., 18-20 hours, read-out: MIC.
[16] abbreviates: Table III, E. Coli ATCC 11775, 37° C., 18-20 hours, read-out: MIC.
Where [17] appears, read: ATCC13880, Table III, Serrat. marcesc. ATCC 13880, 37° C., 18-20 hours, read-out: MIC.
The mark [18] stands for this setting: Table III, E. Coli ATCC 9637, 37° C., 18-20 hours, read-out: MIC.
Where [19] appears, read: Table III, Pseud. aerug. Hbg., 37° C., 18-20 hours, read-out: MIC.

Structures are written as SMILES. In brackets after ≈: the same amount, converted by molar mass. Where two headings read alike, the source gives them in different places.

Consider `Cc1ncc(CNc2ncc(NC(=O)N[C@@H](C(=O)N[C@@H]3C(=O)N4[C@@H]3SC(C)(C)[C@@H]4C(=O)O)c3ccc(O)cc3)c(O)n2)cn1` [F, D-α-{3-[4-Hydroxy-2-(2'-methyl-5'-pyrimidinylmethylamino)-5-pyrimidinyl]-ureido}-p-hydroxy-benzyl-penicillin sodium], for which the MIC (as a rule, the lowest concentration found to suppress growth) in assay [1] was 0.5 µg/mL; in assay [2] (272), 8 µg/mL; in assay [3] (setting [13]) it was 0.06 µg/mL; in [4] (setting [14]) it was 0.5 µg/mL; in [5], 4 µg/mL; in assay [6] (setting [15]), 1 µg/mL. In addition, the MIC came out at 0.5 µg/mL in [7] (setting [16]), 8 µg/mL in assay [8] and 0.5 µg/mL in [9] (setting [17]).

Turning to `CC1(C)S[C@@H]2[C@H](NC(=O)[C@H](NC(=O)N3CCNC3=O)c3ccccc3)C(=O)N2[C@H]1C(=O)O` [Azlocillin, reference compound], the MIC was determined as 16 µg/mL (≈ 34.7 µM) in assay [1] (setting [18]); 32 µg/mL (≈ 69.3 µM) in assay [2] (Table III, Klebs. pneum. 272, 37° C., 18-20 hours, read-out: MIC); 2 µg/mL (≈ 4.33 µM) in [3]; 8 µg/mL (≈ 17.3 µM) in assay [4]; 32 µg/mL (≈ 69.3 µM) in [5] (Table III, Eb. cloaceae ATCC 13047, 37° C., 18-20 hours, read-out: MIC); 8 µg/mL (≈ 17.3 µM) in assay [10]. Further, the minimum inhibitory concentration (MIC) in [6] was 8 µg/mL (≈ 17.3 µM); in assay [7], 8 µg/mL (≈ 17.3 µM); in [8] (Table III, Klebs. pneum. ATCC 10031, 37° C., 18-20 hours, read-out: MIC) it was 32 µg/mL (≈ 69.3 µM); in assay [9] (ATCC13880), 4 µg/mL (≈ 8.67 µM). In addition, the figures for the ED50 in [11] and in [12] were approximately 110 mg/kg and approximately 35 mg/kg, respectively.

For the compound `CC1(C)S[C@@H]2[C@H](NC(=O)[C@H](NC(=O)Nc3cnc(Nc4ccc(O)nc4)nc3O)c3ccc(O)cc3)C(=O)N2[C@H]1C(=O)O` [G, D-α-{3-[4-Hydroxy-2-(6'-hydroxy-3'-pyridylamino)-5-pyrimidinyl]-ureido}-p-hydroxy-benzyl-penicillin sodium], the MIC in assay [1] (setting [18]) was 0.2 µg/mL; in [2] (272) it was 4 µg/mL; in assay [3] (setting [13]), 0.01 µg/mL; in [4] (setting [14]) it was 0.5 µg/mL; in assay [5] it was 4 µg/mL; in assay [10] (setting [19]), 0.5 µg/mL. Also, the minimum inhibitory concentration (MIC) in assay [6] (setting [15]) turned out to be 0.5 µg/mL; in assay [7] (setting [16]) it was 0.2 µg/mL; in assay [8], 4 µg/mL; in assay [9] (setting [17]), 0.1 µg/mL.

As to `CC1(C)S[C@@H]2[C@H](NC(=O)[C@H](NC(=O)Nc3cnc(NCc4cccnc4)nc3O)c3ccc(O)cc3)C(=O)N2[C@H]1C(=O)O` [A, D-α-{3-[4-Hydroxy-2-(3'-pyridylmethylamino)-5-pyrimidinyl]-ureido}-p-hydroxy-benzyl-penicillin sodium], the minimal inhibitory concentration (MIC) in assay [1] was 0.5 µg/mL; in assay [2] (272), 8 µg/mL; in assay [3] (setting [13]), 0.12 µg/mL; in [4] (setting [14]) it was 1 µg/mL; in assay [5], 4 µg/mL; in [6] (setting [15]), 1 µg/mL. Besides, the MIC was determined as 0.5 µg/mL in [7] (setting [16]), 8 µg/mL in [8] and 0.5 µg/mL in [9] (setting [17]). Also, the results for the ED50 in assay [11] and in assay [12] were 1.2 mg/kg and 0.7 mg/kg, respectively.

As for `CC1(C)S[C@@H]2[C@H](NC(=O)[C@H](NC(=O)Nc3cnc(Nc4ccc(S(C)(=O)=O)nc4)nc3O)c3ccc(O)cc3)C(=O)N2[C@H]1C(=O)O` [Compound E, D-α-{3-[4-Hydroxy-2-(6'-methylsulfonyl-3'-pyridylamino)-5-pyrimidinyl]-ureido}-p-hydroxy-benzyl-penicillin sodium], the minimal inhibitory concentration (MIC) in assay [1] (setting [18]) stood at 0.2 µg/mL; in [2] (272), 2 µg/mL; in assay [3] (setting [13]), 0.06 µg/mL; in [4] (setting [14]) it was 0.25 µg/mL; in [5] it was 2 µg/mL; in assay [10] (setting [19]) it was 1 µg/mL. In addition, the MIC amounted to 1 µg/mL in [6] (setting [15]), 0.2 µg/mL in [7] (setting [16]), 2 µg/mL in assay [8] and 0.2 µg/mL in assay [9] (setting [17]).

As for `Cn1nnnc1SCC1=C(C(=O)O)N2C(=O)[C@@H](NC(=O)C(NC(=O)Nc3cnc(NCc4ccco4)nc3O)c3cccs3)[C@H]2SC1` (single isomer, unassigned) [M], the minimum inhibitory concentration (MIC) in assay [2] (272) came to 0.5 µg/mL (≈ 0.715 µM); in assay [3] (Table IV, Prot. mir. Hbg., 37° C., 18-20 hours, read-out: MIC) it was 0.12 µg/mL (≈ 0.171 µM); in assay [4] (Table IV, Prot. rettg., 37° C., 18-20 hours, read-out: MIC), 0.5 µg/mL (≈ 0.715 µM); in assay [10] it was 8 µg/mL (≈ 11.4 µM); in assay [6], 4 µg/mL (≈ 5.72 µM); in assay [9] (ATCC13880, Table IV, Serr. marcesc. ATCC 13880, 37° C., 18-20 hours, read-out: MIC), 0.5 µg/mL (≈ 0.715 µM). Moreover, the ED50 (commonly the midpoint of the dose-response relation) in assay [12] stood at 0.8 mg/kg.
